Measurements from patent US9102752B2, “Peptide vaccine for prevention and immunotherapy of dementia of the Alzheimer's type” (United Biomedical, Inc., priority 2013, dated 2015).

Assays:
[1] = test system: anti-Aβ antibodies in sera from vaccinated baboons; assay: Epitope mapping, 10-mer peptide-based ELISA with sera from vaccinated baboons; conditions: peptide as plate coating
Protocol: Fine specificity analyses of anti-Aβ antibodies in immunized hosts or vaccines were determined by epitope mapping.
These nested peptides were used individually to coat microtiter wells as solid-phase immunoadsorbents for ELISA tests. The positive control ELISA plate was coated with Aβ1-28. They were tested for antibody binding with the sera from the four immunized baboons, from weeks 0, 10, 84 and 111. Baboon sera were serially diluted and assayed on plates coated with a 10-mer peptide at 5 ug/mL.

baboon anti-Aβ antibody = assay: Epitope mapping by competitive inhibition ELISA with hyperimmune baboon sera; type: binding, baboons
[2] = peptide concentration 0.5 μg/mL

Substance | ELISA Titer titers (Log10) ([1]; 0 weeks post immunization) | ELISA Titer titers (Log10) ([1]; 10 weeks post immunization) | ELISA Titer titers (Log10) ([1]; 84 weeks post immunization) | ELISA Titer titers (Log10) ([1]; 111 weeks post immunization) | Percent (%) Inhibition ELISA after peptide pre-absorption of sera (baboon anti-Aβ antibody; [2]) [%] | Percent (%) Inhibition ELISA after peptide pre-absorption of sera (baboon anti-Aβ antibody; peptide concentration 1 μg/mL) [%] | Percent (%) Inhibition ELISA after peptide pre-absorption of sera (baboon anti-Aβ antibody; peptide concentration 2 μg/mL) [%] | Percent (%) Inhibition ELISA after peptide pre-absorption of sera (baboon anti-Aβ antibody; peptide concentration 8 μg/mL) [%] | Percent (%) Inhibition ELISA after peptide pre-absorption of sera (baboon anti-Aβ antibody; peptide concentration 32 μg/mL) [%]
22 (DSGYEVHHQK) [Peptide 22] | 0.32 | 0.78 | 0.64 | 0.76 | – | – | – | – | –
28 (HHQKLVFFAE) [Peptide 28] | 0.19 | 0.22 | 0.13 | 0.12 | – | – | – | – | –
SEQ ID NO: 17: AEFRH DSGYE (AEFRHDSGYE; PEPTIDE (1)..(10) Abeta 2-11 or APP 770(A673-E682); listed as Homo sapiens) [Aβ2-11] | – | – | – | – | 0 | 0 | 0 | 6 | 19
23 (SGYEVHHQKL) [Peptide 23] | 0.13 | 0.49 | 0.51 | 0.78 | – | – | – | – | –
13 (EVKMDAEFRH) [Peptide 13] | 0.19 | 0.23 | 0.16 | 0.14 | – | – | – | – | –
29 (HQKLVFFAED) [Peptide 29] | 0.18 | 0.21 | 0.13 | 0.13 | – | – | – | – | –
24 (GYEVHHQKLV) [Peptide 24] | 0.13 | 0.27 | 0.19 | 0.12 | – | – | – | – | –
11 (ISEVKMDAEF) [Peptide 11] | 0.20 | 0.20 | 0.15 | 0.13 | – | – | – | – | –
SEQ ID NO: 16: MDAEF RHDSG (MDAEFRHDSG; PEPTIDE (1)..(10) Abeta -1-9 or APP 770(M671-G680); listed as Homo sapiens) [Aβ-1-9] | – | – | – | – | 9 | 4 | 8 | 17 | 39
9 (EEISEVKMDA) [Peptide 9] | 0.24 | 0.30 | 0.21 | 0.22 | – | – | – | – | –
25 (YEVHHQKLVF) [Peptide 25] | 0.16 | 0.43 | 0.15 | 0.22 | – | – | – | – | –
17 (AEFRHDSGYE) [Peptide 17] | 0.25 | 0.35 | 0.25 | 0.19 | – | – | – | – | –
20 (RHDSGYEVHH) [Peptide 20] | 0.23 | 0.34 | 0.27 | 0.41 | – | – | – | – | –
8 (TEEISEVKMD) [Peptide 8] | 0.23 | 0.26 | 0.16 | 0.15 | – | – | – | – | –
19 (FRHDSGYEVH) [Peptide 19] | 0.20 | 0.40 | 0.22 | 0.30 | – | – | – | – | –
18 (EFRHDSGYEV) [Peptide 18] | 0.24 | 0.30 | 0.18 | 0.18 | – | – | – | – | –
21 (HDSGYEVHHQ) [Peptide 21] | 0.21 | 0.40 | 0.18 | 1.14 | – | – | – | – | –
16 (MDAEFRHDSG) [Peptide 16] | 0.26 | 0.32 | 0.16 | 0.17 | – | – | – | – | –
SEQ ID NO: 18: EFRHD SGYEV (EFRHDSGYEV; PEPTIDE (1)..(10) Abeta 3-12 or APP 770(E674-V683); listed as Homo sapiens) [Aβ3-12] | – | – | – | – | 1 | 0 | 0 | 0 | 3
15 (KMDAEFRHDS) [Peptide 15] | 0.26 | 0.36 | 0.41 | 0.51 | – | – | – | – | –
12 (SEVKMDAEFR) [Peptide 12] | 0.21 | 0.24 | 0.16 | 0.13 | – | – | – | – | –
10 (EISEVKMDAE) [Peptide 10] | 0.23 | 0.25 | 0.16 | 0.14 | – | – | – | – | –
14 (VKMDAEFRHD) [Peptide 14] | 0.27 | 0.46 | 0.48 | 0.55 | – | – | – | – | –
